According to US10188665B2, “Ocular therapy using glucocorticoid derivatives selectively penetrating posterior segment tissues” (Allergan, Inc., priority 2005, dated 2019):

Legend:
[1] = tested on: VEGF-induced BRB breakdown (retinal leakage); assay: VEGF-induced blood retinal barrier (BRB) breakdown, scanning ocular fluorophotometry of fluorescein leakage; assay type: in vivo, rabbit; conditions: for Inhibition of VEGF-induced BRB breakdown (fluorescein leakage into posterior segment): rabbit eye, 1 mg (100 μl of 10 mg/ml suspension) intravitreal, then intravitreal VEGF, read 48 h later; for Block of VEGF-induced BRB breakdown (retinal leakage): corticosteroid administered systemically or intravitreally
Procedure: (§1) Recombinant vascular endothelial growth factor (VEGF) was obtained from a supplier (R&D Systems). Female Dutch Belt rabbits were anaesthetized with isoflurane inhalation and topical 0.5% proparacaine hydrochloride, and intravitreal injection of one eye with 500 ng VEGF in sterile phosphate buffered saline (PBS) containing 0.1% bovine serum albumin was performed using a 28 guage ½ inch needle. The other eye is given the same volume of the vehicle, without the VEGF.
(§2) The extent of VEGF-induced BRB and BAB breakdown of the blood retinal barrier and the blood aqueous barrier was measured by scanning ocular fluorophotemetry (Fluorotron Master, Ocumetrics Inc.); at various times following intravitreal injection. In this model a fluorescent label is administered intravenously, following by determination of the amount of fluorescenin in the anterior and posterior segment and an indication of iridial and retinal leakage, respectively.
(§3) Sodium fluorescein in 1 ml saline was injected via the marginal ear vein at a concentration of 50 mg/kg, and ocular fluorescein levels in the vitreoretinal chamber and the anterior chamber was determined 50 minutes later.
(§4) Ten milligrams of each compound is added to 1 ml of sterile phosphate-buffered saline (PBS; ph 7.4). At day 0, 100 ml of a 10 mg/ml suspension of each steroid is injected into the vitreous of a rabbit eye. The PBS vehicle is injected into the other eye. VEGF is then injected at a pre-determined time (one month) thereafter, and BRB and BAB breakdown were measured by scanning ocular fluorophotometry 48 hrs later as described in Edelman et al., EXP.

[2] = tested on: VEGF-induced BAB breakdown (iris leakage); assay: VEGF-induced blood aqueous barrier (BAB) breakdown, scanning ocular fluorophotometry of fluorescein leakage; assay type: in vivo, rabbit; conditions: for Inhibition of VEGF-induced BAB breakdown (fluorescein leakage into anterior segment): rabbit eye, 1 mg (100 μl of 10 mg/ml suspension) intravitreal, then intravitreal VEGF, read 48 h later; for Block of VEGF-induced BAB breakdown (iris leakage): corticosteroid administered systemically or intravitreally
Procedure: as §1, §2, §3, §4

[3] = Treatment of cystic macular edema with a GD implant (Example 4); assay type: in vivo, human
Procedure: A person diagnosed with cystic macular edema treated by administration of a biodegradable drug delivery system administered to each eye of the patient. […] A similar implant is administered subconjunctivally to the patient's right eye. […] No increase in intraocular pressure is seen one week after administration.

[4] = Treatment of wet ARMD with a GD composition (Example 5); assay type: in vivo, human; conditions: person, intravitreal 100 μl hyaluronic acid solution with about 1000 μg crystals; within one month
Procedure: A person with wet age-related macular degeneration is treated with an intravitreal injection of 100 μl of a hyaluronic acid solution containing about 1000 μg of fluticasone propionate crystals in suspension.

[5] = rabbit, 500 ng VEGF intravitreal, 48 h, 50 min after i.v. fluorescein

| Compound | Inhibition of VEGF-induced BRB breakdown (fluorescein leakage into posterior segment) [1] | Block of VEGF-induced BRB breakdown (retinal leakage) ([1]; rabbit) | Inhibition of VEGF-induced BAB breakdown (fluorescein leakage into anterior segment) [2] | Block of VEGF-induced BAB breakdown (iris leakage) ([2]; rabbit) | also measured |
| --- | --- | --- | --- | --- | --- |
| C[C@H]1C[C@H]2[C@@H]3CCC4=CC(=O)C=C[C@]4(C)[C@@]3(Cl)[C@@H](O)C[C@]2(C)[C@@]1(O)C(=O)CO [beclomethasone] | inhibited | completely blocked | inhibited | completely blocked | – |
| VEGF | – | – | – | – | Increase in fluorescein contained in the vitreous versus normal untreated eyes [1, 5]: approximately 18 fold; Increase in fluorescein contained in the aqueous versus normal untreated eyes [2, 5]: approximately 6 fold |
| CCC(=O)OCC(=O)[C@@]1(OC(=O)CC)[C@@H](C)C[C@H]2[C@@H]3CCC4=CC(=O)C=C[C@]4(C)[C@@]3(Cl)[C@@H](O)C[C@@]21C [Beclomethasone dipropionate, beclomethasone dipropionate] | – | – | – | – | Appearance of retina ([3]; person, implant of about 1000 μg PLGA and about 1000 μg drug, intravitreal left eye, subconjunctival right eye, about 3 months after surgery): appears normal; Degeneration of the optic nerve ([3]; same patient, about 3 months after surgery): appears to be reduced; Intraocular pressure ([3]; same patient, one week after administration): No increase; Inhibition of VEGF-induced BRB breakdown (fluorescein leakage into posterior segment) ([1]; listed as beclomethasone 17,21-dipropionate): completely blocks |
| CCC(=O)O[C@]1(C(=O)SCF)[C@H](C)C[C@H]2[C@@H]3C[C@H](F)C4=CC(=O)C=C[C@]4(C)[C@@]3(F)[C@@H](O)C[C@@]21C [Fluticasone propionate, fluticasone propionate] | completely blocks | – | – | – | Rate of neovascularization and related inflammation [4]: acceptable reduction |
| CC1(C)O[C@@H]2C[C@H]3[C@@H]4CCC5=CC(=O)C=C[C@]5(C)[C@@]4(F)[C@@H](O)C[C@]3(C)[C@]2(C(=O)CO)O1 [Triamcinolone acetonide, triamcinolone acetonide] | completely inhibited | completely blocked | completely inhibited | completely blocked | – |
